Measurements: US10329334B2 (SANOFI, priority 2015, dated 2019)

Biological target: T1, human lipocalin 2 (hNGAL) mutein SEQ ID NO: 35 (Homo sapiens, UniProt P80188, A60T/C107S/D97H/K145I/K154W/K93R/L123T/L56V/L90R/N85Q/Q48H/Q69G/R101D/R92I/S147R/S88D/T74A/W99Y/Y126Q/Y152I/Y72N)
T1 construct: made in house; host or cells: E. coli
Assay: SPR (Biacore T200), mutein SEQ ID NO: 35
Assay type: binding
Conditions: 2 μM for all analytes
Method: In a Surface Plasmon Resonance (SPR) based assay a Biacore T200 instrument (GE Healthcare) was used to measure the binding affinity of muteins to pyoverdine I succinyl, -succinamid, -α-ketoglutaryl with complexed iron ion or to pyoverdine II succinyl, -succinamid, -α-ketoglutaryl with complexed iron ion or to pyoverdine III succinyl, -succinamid, -α-ketoglutaryl with complexed iron ion. Muteins selected for binding to pyoverdines and negative control (SEQ ID NO: 64) were biotinylated for 2 h at room temperature applying an appropriate excess of EZ-Link NHS-PEG4-Biotin (Thermo, Cat#21329) followed by separation of non-reacted Biotin using a Zeba Spin Desalting Plate (Thermo, Cat#21329) according to the manufactures instructions.
In the SPR affinity assay, biotinylated muteins and negative control were captured on a sensor chip CAP using the Biotin CAPture Kit (GE Healthcare): Sensor Chip CAP is pre-immobilized with an ssDNA oligo. Undiluted Biotin CAPture Reagent (streptavidin conjugated with the complementary ss-DNA oligo) was applied at a flow rate of 2 μl/min for 300 s. Subsequently, 1 μg/ml to 100 μg/mL of biotinylated muteins or negative control were applied for 300 s at a flow rate of 5 μl/min. The reference channel was loaded with Biotin CAPture Reagent only.
Applying a flow rate of 30 μl/min, a single cycle or multi cycle kinetics approach was used with a sample contact time of 120-180 s and a dissociation time of 900-2400 s. […] After ligand immobilization, for analysis using single cycle kinetics all 4-5 concentrations of Pvd were applied consecutively in ascending order before the dissociation was monitored. For analysis using multi cycle kinetics 4 dilutions of Pvd were applied, each followed a dissociation phase. All measurements were performed at 25° C. […] Data were evaluated with Biacore T200 Evaluation software (V 1.0). Double referencing was used. A 1:1 Binding model was used to fit the raw data.

T1 sequence (P80188 21-198 with the stated changes): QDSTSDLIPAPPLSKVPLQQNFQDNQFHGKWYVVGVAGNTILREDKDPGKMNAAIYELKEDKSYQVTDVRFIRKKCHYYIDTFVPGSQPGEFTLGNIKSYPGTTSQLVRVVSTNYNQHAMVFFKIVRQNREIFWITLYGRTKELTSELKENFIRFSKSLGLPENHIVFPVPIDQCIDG

Structure (SMILES)	specificity and crossreactivity (binding)
CC(=O)N(O)CCCCCNC(=O)CCC(=O)N(O)CCCCCNC(=O)CCC(=O)N(O)CCCCCN [Desferoxamin, desferoxamine, reference compound]	absence of binding
CN1[C@@H]([C@H]2CSC(c3ccccc3O)=N2)SC[C@H]1C(=O)O [Pyochelin, pyochelin]	absence of binding
